Test results reported in patent publication US11178872B2 (dated 2021).

melting point [°C] | SMILES
228 to 230 | CO[C@@]1(c2ccc(C)cc2)[C@@H]2CC[C@H]1CN(C(=O)c1cc(C#N)c(-c3ccc(C(F)(F)F)cc3)nc1C(F)F)C2
175 to 177 | N#Cc1cc(C(=O)N2CCC(O)(c3ccc(Cl)cc3)CC2)c(C(F)F)nc1-c1ccc(Cl)cn1
200 | N#Cc1cc(C(=O)N2CCC(O)(c3ccc(Cl)cc3)CC2)c(C(F)F)nc1-c1ccc(C(F)(F)F)cc1
191 to 195 | N#Cc1cc(C(=O)N2CCC(O)(c3ccccc3Cl)C2)c(C(F)F)nc1-c1ccc(C(F)(F)F)cc1 (centres unmarked)
69 to 71 | Cc1nc(C2CCN(C(=O)c3cc(C#N)c(-c4ccc(Cl)s4)nc3C)CC2)no1
177 to 180 | N#Cc1cc(C(=O)N2CCC(O)(c3ccc(Cl)cc3)CC2)c(C(F)F)nc1-c1ccc(C(F)(F)F)nc1
181 to 184 | N#Cc1cc(C(=O)N2CCC(c3noc(O)n3)C2)c(C(F)F)nc1-c1ccc(C(F)(F)F)cc1 (centres unmarked)
60 to 62 | Cc1nc(C2CCN(C(=O)c3cc(C#N)c(-c4ccc(C(F)(F)F)cn4)nc3C)CC2)no1
150 to 155 | N#Cc1cc(C(=O)N2CCC(O)(c3ccc(Cl)cc3)CC2)c(C(F)F)nc1-c1ccnc(F)c1
220 | Cn1cc(-c2nc(C(F)F)c(C(=O)N3CCC(O)(c4ccc(Cl)cc4)CC3)cc2C#N)cn1
193 to 195 | CCCn1cc(-c2nc(C(F)F)c(C(=O)N3CCC(O)(c4ccc(Cl)cc4)CC3)cc2C#N)cn1
